Data: ChEMBL document CHEMBL1201862, “PubChem BioAssay data set” (2004)
The source made the active and inactive calls.

Columns and labels:
[1] = target: NAD-dependent protein deacylase sirtuin-5, mitochondrial (Homo sapiens, UniProt Q9NXA8); test: sirtuin-5 deacylation blockers, concentration series – biochemical, fluorescence imaging, cherry-pick, set 5, dose response (AID 720591);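 further: desuccinylation of succinyl peptide AMC substrate read as fluorescence after trypsin release; potency of inhibitors that lower fluorescence and may act on trypsin instead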
NAD-dependent protein deacylase sirtuin-5, mitochondrial, sequence (Q9NXA8 whole entry): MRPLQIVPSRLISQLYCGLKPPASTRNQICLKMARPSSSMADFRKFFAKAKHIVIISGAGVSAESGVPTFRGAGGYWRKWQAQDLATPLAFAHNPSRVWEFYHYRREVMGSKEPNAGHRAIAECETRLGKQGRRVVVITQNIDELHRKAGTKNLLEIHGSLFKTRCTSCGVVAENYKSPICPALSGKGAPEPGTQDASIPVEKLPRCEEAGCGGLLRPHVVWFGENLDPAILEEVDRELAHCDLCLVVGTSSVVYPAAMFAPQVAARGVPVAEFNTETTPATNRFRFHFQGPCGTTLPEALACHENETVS

Protein Tat = target: T1, Protein Tat (Human immunodeficiency virus type 1 group M subtype B (isolate HXB2)(HIV-1), UniProt P04608); type: functional;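 further: tat binding to TAR RNA read out by fluorescence polarization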
T1 sequence (P04608 whole entry): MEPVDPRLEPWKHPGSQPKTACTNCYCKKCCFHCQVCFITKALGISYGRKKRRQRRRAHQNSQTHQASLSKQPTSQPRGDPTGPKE

[2] = toxicity to human hepatoma HepG2 cells – cell-based, cherry-picked samples, cytotoxicity control, dose response (AID 1159577); type: functional
[3] = P. falciparum Dd2 growth inhibitors, dose response, SYBR Green, cherry-picked samples (AID 1159567); type: functional, cell-based
HEK293 = test: cells; type: functional, cell-based; settings: Homo sapiens
[4] = target: T2, Nuclear receptor subfamily 0 group B member 1 (Homo sapiens, UniProt P51843); test: Luminescence-based cell-based high throughput dose response assay for inhibitors of the orphan nuclear receptor subfamily 0, group B, member 1 (DAX1; NR0B1). [Related pubchem assays (depositor defined):AID504766, AID504790]; type: functional
T2 sequence (P51843 whole entry): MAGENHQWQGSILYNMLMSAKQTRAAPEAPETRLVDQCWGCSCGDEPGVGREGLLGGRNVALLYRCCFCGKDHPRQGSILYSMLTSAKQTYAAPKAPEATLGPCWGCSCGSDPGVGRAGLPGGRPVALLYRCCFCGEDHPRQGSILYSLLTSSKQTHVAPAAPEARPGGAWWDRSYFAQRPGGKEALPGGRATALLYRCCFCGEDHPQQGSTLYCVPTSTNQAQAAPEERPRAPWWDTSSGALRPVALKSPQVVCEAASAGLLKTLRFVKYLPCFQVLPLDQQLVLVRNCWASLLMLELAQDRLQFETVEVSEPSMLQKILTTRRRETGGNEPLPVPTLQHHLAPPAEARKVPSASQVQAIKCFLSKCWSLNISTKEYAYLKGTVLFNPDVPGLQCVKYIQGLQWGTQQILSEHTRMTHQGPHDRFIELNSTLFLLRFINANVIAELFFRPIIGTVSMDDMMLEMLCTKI

[5] = Luminescence-based cell-based high throughput dose response assay to identify activators of the DAF-12 from the parasite S. stercoralis (ssDAF-12).; type: functional
[6] = target: T3, Oxysterols receptor LXR-beta (Homo sapiens, UniProt P55055); test: LXR agonists, Gal4 luciferase reporter, dose response, counter-screen for ssDAF-12 agonist project, cell-based, luminescence, HEK293, S. stercoralis campaign (AID 720737); type: functional; settings: read-out: IC50 (the source's name)
T3 sequence (P55055 whole entry): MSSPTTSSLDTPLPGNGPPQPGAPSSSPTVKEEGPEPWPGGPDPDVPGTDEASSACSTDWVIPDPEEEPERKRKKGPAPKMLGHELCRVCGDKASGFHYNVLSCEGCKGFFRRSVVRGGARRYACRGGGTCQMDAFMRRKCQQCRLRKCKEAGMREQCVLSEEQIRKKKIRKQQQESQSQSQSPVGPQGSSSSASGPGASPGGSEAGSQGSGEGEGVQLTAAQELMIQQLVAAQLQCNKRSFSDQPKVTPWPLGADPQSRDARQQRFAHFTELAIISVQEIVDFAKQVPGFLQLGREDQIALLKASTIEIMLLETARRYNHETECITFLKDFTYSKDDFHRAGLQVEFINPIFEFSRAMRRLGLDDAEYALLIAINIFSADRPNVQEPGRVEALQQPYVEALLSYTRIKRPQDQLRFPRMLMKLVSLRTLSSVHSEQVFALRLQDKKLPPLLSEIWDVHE

[7] = target: T4, Mannose-6-phosphate isomerase (Homo sapiens, UniProt P34949); test: MPI inhibition at elevated mannose 6-phosphate – biochemical, fluorescence intensity, high mannose 6-phosphate, primary screen (AID 1220)
T4 sequence (P34949 whole entry): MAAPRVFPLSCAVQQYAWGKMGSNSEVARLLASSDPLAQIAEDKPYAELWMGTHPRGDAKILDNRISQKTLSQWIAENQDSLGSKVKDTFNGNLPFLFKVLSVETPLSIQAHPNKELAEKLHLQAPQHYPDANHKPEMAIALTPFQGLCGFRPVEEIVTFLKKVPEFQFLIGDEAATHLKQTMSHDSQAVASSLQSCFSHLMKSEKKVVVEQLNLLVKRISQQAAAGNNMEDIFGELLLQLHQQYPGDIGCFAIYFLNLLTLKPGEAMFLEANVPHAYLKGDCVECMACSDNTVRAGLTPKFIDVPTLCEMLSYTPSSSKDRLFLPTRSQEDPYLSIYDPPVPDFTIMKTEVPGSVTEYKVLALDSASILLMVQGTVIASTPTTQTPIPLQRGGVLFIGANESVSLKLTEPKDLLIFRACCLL

[8] = viability loss in HEK293 cells – cell-based, plate reader, cherry-picked samples, cytotoxicity control, dose response (AID 743446); type: functional
[9] = blockers of bursicon-stimulated LGR2 cAMP reporter – cell-based, HEK293, CRE-luciferase reporter, cherry pick, set 2, dose response (AID 743343); type: functional;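 further: transfected cells were stimulated with diluted bursicon conditioned medium after compound addition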
[10] = blockade of melanocortin 4 receptor signaling – cell-based, plate reader, cherry pick, counter-screen for LGR2 antagonist project, dose response (AID 743444); type: functional;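 further: transfected HEK 293 cells stimulated with alpha-MSH peptide; potency of inhibitors of the alpha-MSH evoked signal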
[11] = target: T5, Sentrin-specific protease 7 (Homo sapiens, UniProt Q9BQF6); type: functional;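 further: Luminescence-based dose-response confirmation of ultra-high-throughput screening hits, measuring inhibition of SENP7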
T5 sequence (Q9BQF6 whole entry): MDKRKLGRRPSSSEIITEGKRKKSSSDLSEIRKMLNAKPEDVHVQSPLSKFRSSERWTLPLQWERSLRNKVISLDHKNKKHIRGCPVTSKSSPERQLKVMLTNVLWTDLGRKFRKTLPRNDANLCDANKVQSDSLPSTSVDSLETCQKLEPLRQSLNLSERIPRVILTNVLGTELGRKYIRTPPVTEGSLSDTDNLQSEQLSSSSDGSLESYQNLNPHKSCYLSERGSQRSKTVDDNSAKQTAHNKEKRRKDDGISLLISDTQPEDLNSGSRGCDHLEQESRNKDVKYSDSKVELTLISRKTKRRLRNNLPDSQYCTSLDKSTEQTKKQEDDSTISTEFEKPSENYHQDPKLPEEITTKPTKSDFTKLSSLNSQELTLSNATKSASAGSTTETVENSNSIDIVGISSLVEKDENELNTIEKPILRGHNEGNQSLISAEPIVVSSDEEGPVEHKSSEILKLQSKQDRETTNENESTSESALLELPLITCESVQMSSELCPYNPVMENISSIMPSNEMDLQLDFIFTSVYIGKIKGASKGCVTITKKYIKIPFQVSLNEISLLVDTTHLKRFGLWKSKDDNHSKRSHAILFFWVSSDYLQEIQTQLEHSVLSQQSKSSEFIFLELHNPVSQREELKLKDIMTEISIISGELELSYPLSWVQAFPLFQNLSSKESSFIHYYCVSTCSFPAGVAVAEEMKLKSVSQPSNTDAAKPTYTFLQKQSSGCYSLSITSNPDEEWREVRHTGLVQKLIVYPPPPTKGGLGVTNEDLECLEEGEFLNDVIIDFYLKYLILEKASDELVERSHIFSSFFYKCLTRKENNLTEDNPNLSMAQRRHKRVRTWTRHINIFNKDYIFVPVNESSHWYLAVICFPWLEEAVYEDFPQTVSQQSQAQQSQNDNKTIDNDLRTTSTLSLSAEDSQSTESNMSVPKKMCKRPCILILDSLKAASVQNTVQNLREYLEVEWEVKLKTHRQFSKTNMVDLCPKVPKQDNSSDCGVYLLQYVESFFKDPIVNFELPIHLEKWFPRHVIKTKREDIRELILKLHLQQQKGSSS

[12] = target: T3, Oxysterols receptor LXR-beta; type: functional, cell-based
[13] = target: T6, Sentrin-specific protease 8 (Homo sapiens, UniProt Q96LD8); type: functional;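 further: luminescence read-out of SENP8 inhibition, dose-response confirmation following an ultra-high-throughput screen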
T6 sequence (Q96LD8 whole entry): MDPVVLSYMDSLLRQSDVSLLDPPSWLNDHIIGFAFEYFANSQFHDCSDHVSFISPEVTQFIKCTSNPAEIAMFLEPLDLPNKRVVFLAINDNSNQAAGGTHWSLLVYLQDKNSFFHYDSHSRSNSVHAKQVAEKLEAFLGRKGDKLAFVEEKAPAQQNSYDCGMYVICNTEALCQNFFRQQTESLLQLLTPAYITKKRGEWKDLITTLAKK

Caspase-3 = target: T7, Caspase-3 (Homo sapiens, UniProt P42574); type: functional;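 further: Dose-response selectivity test against caspase-3 for candidate inhibitors of sentrin-specific proteases (SENPs)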
T7 sequence (P42574 whole entry): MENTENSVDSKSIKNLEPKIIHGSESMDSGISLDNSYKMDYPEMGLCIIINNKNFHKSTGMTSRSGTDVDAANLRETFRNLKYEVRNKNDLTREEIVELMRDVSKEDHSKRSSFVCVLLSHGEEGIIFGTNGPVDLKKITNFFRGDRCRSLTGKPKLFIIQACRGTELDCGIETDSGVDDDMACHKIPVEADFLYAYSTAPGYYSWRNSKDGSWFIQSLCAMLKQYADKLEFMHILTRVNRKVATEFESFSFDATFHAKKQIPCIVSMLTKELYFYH

[14] = target: T8, Sentrin-specific protease 6 (Homo sapiens, UniProt Q9GZR1); type: functional;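 further: Luminescence-based dose-response confirmatory assay of SENP6 inhibition, following up an ultra-high-throughput screen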
T8 sequence (Q9GZR1 whole entry): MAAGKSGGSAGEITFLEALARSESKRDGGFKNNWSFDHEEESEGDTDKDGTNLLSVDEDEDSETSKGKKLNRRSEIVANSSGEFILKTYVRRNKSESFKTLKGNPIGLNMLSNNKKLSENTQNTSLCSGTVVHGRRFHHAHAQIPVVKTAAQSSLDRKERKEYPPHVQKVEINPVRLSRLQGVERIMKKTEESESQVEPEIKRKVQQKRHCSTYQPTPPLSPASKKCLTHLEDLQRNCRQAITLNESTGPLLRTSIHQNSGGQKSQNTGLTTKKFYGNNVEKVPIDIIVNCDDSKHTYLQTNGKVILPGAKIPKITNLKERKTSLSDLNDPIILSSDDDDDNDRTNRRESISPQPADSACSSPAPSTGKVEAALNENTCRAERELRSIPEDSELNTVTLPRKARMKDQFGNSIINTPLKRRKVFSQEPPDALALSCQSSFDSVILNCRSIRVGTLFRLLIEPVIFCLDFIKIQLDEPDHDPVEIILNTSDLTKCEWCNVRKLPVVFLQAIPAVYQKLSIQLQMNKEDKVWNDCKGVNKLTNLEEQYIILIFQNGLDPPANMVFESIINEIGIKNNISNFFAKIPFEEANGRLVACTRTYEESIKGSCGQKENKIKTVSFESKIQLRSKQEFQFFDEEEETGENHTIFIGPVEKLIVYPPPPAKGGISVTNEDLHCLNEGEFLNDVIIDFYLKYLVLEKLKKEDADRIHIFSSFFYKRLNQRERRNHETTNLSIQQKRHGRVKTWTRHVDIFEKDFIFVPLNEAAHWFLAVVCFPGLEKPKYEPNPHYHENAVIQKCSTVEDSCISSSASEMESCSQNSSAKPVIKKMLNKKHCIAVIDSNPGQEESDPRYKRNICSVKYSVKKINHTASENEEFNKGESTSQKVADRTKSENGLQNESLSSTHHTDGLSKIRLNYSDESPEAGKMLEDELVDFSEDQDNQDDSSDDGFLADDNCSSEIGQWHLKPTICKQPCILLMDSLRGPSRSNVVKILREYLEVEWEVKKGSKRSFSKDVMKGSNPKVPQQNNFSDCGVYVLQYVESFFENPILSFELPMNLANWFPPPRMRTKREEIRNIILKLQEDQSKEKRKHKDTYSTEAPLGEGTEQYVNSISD

[15] = target: T9, Rac GTPase-activating protein 1 (Homo sapiens, UniProt Q9H0H5); test: blockers of MgcRacGAP-driven Rac1 GTP hydrolysis – biochemical, ADP Hunter fluorescence, primary and confirmatory, confirmation (AID 624330); type: functional
T9 sequence (Q9H0H5 whole entry): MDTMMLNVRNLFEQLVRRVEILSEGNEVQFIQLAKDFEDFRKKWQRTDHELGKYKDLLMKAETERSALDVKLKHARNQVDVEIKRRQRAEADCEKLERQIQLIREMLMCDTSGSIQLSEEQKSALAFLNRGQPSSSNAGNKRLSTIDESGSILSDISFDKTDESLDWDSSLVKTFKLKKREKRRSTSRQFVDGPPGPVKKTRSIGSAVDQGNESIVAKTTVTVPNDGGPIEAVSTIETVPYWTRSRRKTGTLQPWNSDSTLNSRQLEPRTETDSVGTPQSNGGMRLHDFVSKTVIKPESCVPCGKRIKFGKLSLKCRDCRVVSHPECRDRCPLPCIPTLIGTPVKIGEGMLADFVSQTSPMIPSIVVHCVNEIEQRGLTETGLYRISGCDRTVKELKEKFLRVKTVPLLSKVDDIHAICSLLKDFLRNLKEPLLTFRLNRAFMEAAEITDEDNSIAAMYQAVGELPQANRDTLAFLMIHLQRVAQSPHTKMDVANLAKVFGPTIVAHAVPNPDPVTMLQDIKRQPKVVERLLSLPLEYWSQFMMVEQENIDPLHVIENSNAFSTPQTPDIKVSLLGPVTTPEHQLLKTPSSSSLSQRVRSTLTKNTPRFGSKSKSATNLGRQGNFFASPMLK

SMILES: Cc1cccc2sc(NC(=O)C3CC3)nc12
- AC50 [1]: > 30 µM (inactive)

SMILES: O=C(c1ccco1)N1CCN(C(c2ccccn2)c2nnnn2C2CCCC2)CC1 (stereo unspecified)
- IC50 (Protein Tat): > 100 µM (active)

SMILES: COc1cccc(S(=O)(=O)N2CCCCN3[C@@H](CO)[C@@H](c4ccc(C5=CCCCC5)cc4)[C@@H]3C2)c1
- AC50 [2]: 10.8 µM (active)
- AC50 [3]: 1.62 µM (active)

SMILES: COc1ccc(Cl)cc1C(=O)Nc1ccc2c(c1)OCCO2
- IC50 (HEK293): > 67.5 µM (inactive)
- IC50 [4]: > 67.5 µM (inactive)
- IC50 [5]: > 67.5 µM (inactive)
- EC50 [6]: > 67.5 µM (inactive)

SMILES: CCN(CC)c1ccc(N/C=C2\C(=O)NC(=O)N(CCc3ccc(OC)c(OC)c3)C2=O)cc1
- IC50 [7]: > 50 µM (not active)

SMILES: Clc1cccc(N2Cc3cc(-c4ccccc4)ccc3-n3nncc3C2)c1
- AC50 [8]: 20.7 µM (active)
- AC50 [9]: 29.4 µM (active)
- AC50 [10]: 34.1 µM (active)

SMILES: CCOC(=O)c1c(C)[nH]c(N=Nc2cccc(OC)c2)c1C
- IC50 [11]: 3.75 µM (active)
- EC50 [12]: > 67.5 µM (inactive)
- IC50 [13]: 17.3 µM (active)
- IC50 (Caspase-3): 29.1 µM (active)
- IC50 [14]: 11.7 µM (active)

SMILES: Cc1cc(C(=O)NNC(=O)/C=C/c2ccco2)c(C)o1
- IC50 (Protein Tat): > 100 µM (active)
- IC50 [15]: 125 µM (active)

SMILES: O=C(COC(=O)c1nnc(O)c2ccccc12)Nc1ccccc1
- AC50 [1]: > 30 µM (inactive)

SMILES: Cc1ccc(C)c(N2CCN(C(=O)c3cccn4c(=O)c5sccc5nc34)CC2)c1
- AC50 [1]: 26.9 µM (active)
